{
  "source": "paper PMC4760375",
  "about": "“A dual phosphorylation switch controls 14-3-3-dependent cell surface expression of TASK-1” (Journal of Cell Science, 2016)",
  "key": {"14-3-3β": {"molecular_target": "T1, 14-3-3β (Homo sapiens, UniProt P31946)", "T1 construct": "Open reading frames encoding human 14-3-3 proteins were inserted into the pMAL2Cx vector at EcoRI and HindIII restriction sites; made in house", "T1 sequence (P31946 whole entry)": "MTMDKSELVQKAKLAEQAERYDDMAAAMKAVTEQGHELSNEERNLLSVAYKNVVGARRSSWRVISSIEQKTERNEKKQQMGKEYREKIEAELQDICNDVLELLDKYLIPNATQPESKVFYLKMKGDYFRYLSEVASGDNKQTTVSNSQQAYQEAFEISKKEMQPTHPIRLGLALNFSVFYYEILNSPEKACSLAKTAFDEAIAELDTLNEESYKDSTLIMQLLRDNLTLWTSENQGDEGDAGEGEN", "assay": "Fluorescence polarization titration with 14-3-3β", "format": "binding", "conditions": "versus TASK-3 pS373", "protocol": "(§1) TASK-1 or TASK-3 C-terminal fluorescent peptides (10 nM), comprising the last 15 amino acids of the respective C-termini, were titrated with concentrations of the 14-3-3 proteins ranging from 1 nM to 120 µM (Fig. 2), and the equilibrium dissociation constants of 14-3-3 proteins were calculated for TASK-1 phosphorylated at S393 (TASK-1 pS393; the conserved serine residue of the mode III 14-3-3-binding motif) and for TASK-3 phosphorylated at S373 (TASK-3 pS373) (Table 1). They ranged from 7.5±0.14 µM (mean±s.e.m.; 14-3-3β) to 49.4±2 µM (14-3-3τ) for TASK-1, whereas dissociation constants for TASK-3 ranged from 110±10 nM (14-3-3η) to 3.6±0.44 µM (14-3-3σ). The latter value matches the result determined previously by [Anders et al. (2013]) for the TASK-3 C-terminal hexapeptide using isothermal titration calorimetry. […]\n(§2) Fig. 2. […] Fluorescence polarization titration of fluorescein-labeled TASK-1 pS393 (black), TASK-3 pS373 (red) and TASK-3 pS373 ΔV374 (blue) peptide (10 nM) with increasing concentrations of the indicated 14-3-3 isoform. Fluorescein was excited at 485 nm, and fluorescence polarization was monitored at 535 nm. […]\n(§3) Interactions between 14-3-3 proteins and TASK-1 and TASK-3 C-terminal peptides and variants were investigated using a fluorescence polarization assay ([Moll et al., 2006]; [Muda et al., 2014]). […]"}, "14-3-3ε": {"molecular_target": "T2, 14-3-3ε (Homo sapiens, UniProt P62258)", "T2 construct": "Open reading frames encoding human 14-3-3 proteins were inserted into the pMAL2Cx vector at EcoRI and HindIII restriction sites; made in house", "T2 sequence (P62258 whole entry)": "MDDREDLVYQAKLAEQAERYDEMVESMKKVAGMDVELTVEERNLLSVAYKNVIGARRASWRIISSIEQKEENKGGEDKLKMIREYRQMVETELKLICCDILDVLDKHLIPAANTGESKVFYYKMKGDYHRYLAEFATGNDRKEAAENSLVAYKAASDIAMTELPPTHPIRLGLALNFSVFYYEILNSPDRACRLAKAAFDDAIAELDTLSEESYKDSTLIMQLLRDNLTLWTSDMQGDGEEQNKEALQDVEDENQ", "assay": "Fluorescence polarization titration with 14-3-3ε", "format": "binding", "conditions": "versus TASK-3 pS373", "protocol": "as §1, §2, §3"}, "14-3-3σ": {"molecular_target": "T3, 14-3-3σ (Homo sapiens, UniProt P31947)", "T3 construct": "Open reading frames encoding human 14-3-3 proteins were inserted into the pMAL2Cx vector at EcoRI and HindIII restriction sites; made in house", "T3 sequence (P31947 1-248)": "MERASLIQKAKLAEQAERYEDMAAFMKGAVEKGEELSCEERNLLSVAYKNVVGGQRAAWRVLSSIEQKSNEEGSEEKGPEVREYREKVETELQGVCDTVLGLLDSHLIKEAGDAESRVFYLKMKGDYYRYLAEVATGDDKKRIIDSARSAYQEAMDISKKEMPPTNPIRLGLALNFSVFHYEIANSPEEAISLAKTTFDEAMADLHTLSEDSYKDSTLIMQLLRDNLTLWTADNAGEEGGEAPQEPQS", "assay": "Fluorescence polarization titration with 14-3-3σ", "format": "binding", "protocol": "as §1, §2, §3"}, "[1]": {"test_system": "14-3-3 proteins (all seven isoforms)", "assay": "Fluorescence polarization titration, statements across the 14-3-3 isoforms", "format": "binding, human", "conditions": "fluorescence polarization; 14-3-3β, 14-3-3γ, 14-3-3ζ, 14-3-3η and 14-3-3τ", "protocol": "TASK-1 or TASK-3 C-terminal fluorescent peptides (10 nM), comprising the last 15 amino acids of the respective C-termini, were titrated with concentrations of the 14-3-3 proteins ranging from 1 nM to 120 µM (Fig. 2), and the equilibrium dissociation constants of 14-3-3 proteins were calculated for TASK-1 phosphorylated at S393 (TASK-1 pS393; the conserved serine residue of the mode III 14-3-3-binding motif) and for TASK-3 phosphorylated at S373 (TASK-3 pS373) (Table 1). They ranged from 7.5±0.14 µM (mean±s.e.m.; 14-3-3β) to 49.4±2 µM (14-3-3τ) for TASK-1, whereas dissociation constants for TASK-3 ranged from 110±10 nM (14-3-3η) to 3.6±0.44 µM (14-3-3σ). The latter value matches the result determined previously by [Anders et al. (2013]) for the TASK-3 C-terminal hexapeptide using isothermal titration calorimetry. The dissociation constants of the seven mammalian 14-3-3 isoforms for the same TASK C-terminal peptide differed up to sevenfold for TASK-1-derived peptides and up to 30-fold for TASK-3-derived peptides. […] No binding of any 14-3-3 isoform to any TASK C-terminal peptide was observed when the peptides were not phosphorylated.\nFig. 2. […] Fluorescence polarization titration of fluorescein-labeled TASK-1 pS393 (black), TASK-3 pS373 (red) and TASK-3 pS373 ΔV374 (blue) peptide (10 nM) with increasing concentrations of the indicated 14-3-3 isoform. Fluorescein was excited at 485 nm, and fluorescence polarization was monitored at 535 nm. A monophasic fit was used to fit the data (Goodness-of-fit: R^2 from 0.76 to 0.98). No binding was detectable for the unphosphorylated TASK C-terminal peptides. The assay was repeated at least six times for each data point with two batches of independently purified 14-3-3 proteins. Error bars depict s.e.m. (A) 14-3-3β, (B) 14-3-3γ, (C) 14-3-3ε, (D) 14-3-3ζ, (E) 14-3-3η and (F) 14-3-3τ.\n[Mant et al. (2011)] report that both serine residues present in the TASK-1 C-terminus can be phosphorylated in vitro by the recombinant catalytic subunit of PKA. […] Next, using fluorescence polarization titration, we determined how phosphorylation of S392 affects the affinity of all seven mammalian 14-3-3 proteins for the TASK-1 C-terminus – either when phosphorylated alone or in combination with phosphorylation of S393 (Table S1). […] Because all Kd values determined for TASK-1 pS392 and the doubly phosphorylated protein (at S392 and S393) were substantially higher than those measured for TASK-1 pS393 (Table S1), we conclude that phosphorylation of S392 cannot substitute for phosphorylated S393 in creating a high-affinity 14-3-3 binding site. On the contrary, our results are consistent with an inhibitory role for phosphorylation of S392 with respect to 14-3-3-mediated binding.\nInteractions between 14-3-3 proteins and TASK-1 and TASK-3 C-terminal peptides and variants were investigated using a fluorescence polarization assay ([Moll et al., 2006]; [Muda et al., 2014]). Fluorescein-labeled peptides were purchased from Peps4Life Sciences (Heidelberg, Germany). All measurements were performed in buffer containing 20 mM MOPS, 150 mM NaCl, 0.005% (v/v) CHAPS pH 7.0, using a Fusion™ α-FP microtiter plate reader at room temperature in a 384-well microtiter plater (Optiplate 384, black; Packard, Meriden, CT). 14-3-3 proteins were serially diluted from 100 µM to 1 nM and incubated with 10 nM of fluorescently labeled peptide. The fluorescence polarization signal was detected for 2 s at an excitation wavelength of 485 nm with an emission fluorescence polarization filter wavelength of 535 nm and a photomultiplier voltage of 1100. Data were analyzed with GraphPad Prism 6.0 (GraphPad Software, San Diego, CA) by plotting the obtained fluorescence polarization signal in millipolarization units (mPol) against the logarithm of the 14-3-3 protein concentration. The data were then fitted using a monophasic fit."}},
  "note": "Non-standard residues stand in square brackets, D forms with d. Residues, ends and D or L forms follow the SMILES beside them. pS = N[C@@H](COP(=O)(O)O)C(=O)O",
  "data": [
    {"smiles": "CSCC[C@H](NC(=O)[C@H](CC(C)C)NC(=O)[C@H](CCCNC(=N)N)NC(=O)[C@H](CCC(N)=O)NC(=O)[C@H](Cc1c[nH]cn1)NC(=O)[C@H](CC(=O)O)NC(=O)[C@@H](NC(=O)[C@H](Cc1ccccc1)NC(=O)[C@H](CO)NC(=O)[C@@H](N)CS)[C@@H](C)O)C(=O)N[C@@H](CCCCN)C(=O)N[C@@H](CCCNC(=N)N)C(=O)N[C@@H](CCCNC(=N)N)C(=O)N[C@@H](CCCCN)C(=O)N[C@@H](COP(=O)(O)O)C(=O)O", "note": "[TASK-3 pS373 ΔV374] (H-CSFTDHQRLMKRRK[pS]-OH; N-terminus assumed)", "values": [
      {"measurement": "fold reduction of affinity by the C-terminal deletion, 14-3-3β", "setting": "14-3-3β", "value": "three"},
      {"measurement": "fold reduction of affinity by the C-terminal deletion, 14-3-3 epsilon", "setting": "14-3-3ε", "value": 23, "unit": "fold"},
      {"measurement": "Kd, fluorescence polarization, 14-3-3σ", "setting": "14-3-3σ; 10 nM fluorescein-labeled peptide titrated with 14-3-3 (1 nM to 120 µM), 20 mM MOPS, 150 mM NaCl, 0.005% CHAPS pH 7.0, room temperature, monophasic fit, ±s.e.m., n.b. = no binding detectable", "value": "n.b.±n.b."},
      {"measurement": "interaction with 14-3-3σ (in words)", "setting": "14-3-3σ; fluorescence polarization titration", "value": "could no longer be measured"},
      {"measurement": "affinity range (in words)", "setting": "[1]", "value": "low micromolar range"}
    ]}
  ]
}
